{"source": "patent US5750141A", "about": "“Administration of vaso-active agent and therapeutic agent” (The University of Queensland, priority 1993, dated 1998)", "key": {"[1]": {"type": "in vivo, rat (male Wistar)"}, "[2]": {"parameters": "species or system rat (male Wistar)", "procedure": "The following experiment was designed to determine the effect of changes in tissue blood flow (perfusion) on the transdermal absorption and subsequent tissue distribution of 3H-water.\nHindlimb perfusions: Briefly, rats (malc Wistar 280-340 g) were anaesthetised with sodium pentobarbitone 60 mg/ig i.p., the abdomen opened and the right femoral artery cannulated (PESO) via the aorta. A second cannula (PE205) was placed in the dorsal vena cava, and the hindlimb perfused in a humidicrib at 37° C. with oxygenated (95%O2 /5%CO2) Krebs Heinseleit Ringer (mM: NaCl 118, KCl 4.74, KH2 PO4 1.18, MgSO4.7H2 O 0 1.18 CaCl2.2H2 O 2.54, NaHCO3 25, Glucose 11.1;pH 7.4, 37° C.), containing 4% bovine serum albumin (Fraction V, Sigma). Once the perfusions were established rats were sacrificed by creating a pneumothorax and turned over so that cells could be attached to the outer thigh of the perfused limb. The pressure of the inflowing perfusate was continuously monitored, mean pressures were in the order of 30 and 40 mmHg at 4 and 8ml/min respectively. The perfused preparation is stable for up to 2 hrs, as validated by testing inflowing and outflowing perfusate samples for pH, dissolved oxygen concentrations, together with various enzyme and ion concentrations. The perfusion flow rates were controlled by a graduated peristaltic pump, and were measured at the beginning and end of each experiment.\nGlass diffusion cells (8 cm high, 1.8 cm internal diameter, 2.54 cm^2 skin application area), were fixed to the skin on the outer thigh of the perfused hindlimb with adhesive. The application area on the hindlimb was first depilated with commercial Nair™ hair-removal cream and the epidermis removed using a dermatome before the perfusion was established. Solutions (2 ml) containing trace amounts of the radiolabelled ^3 H-water (Sigma Chemical Co, Australia), in phosphate buffered saline (pH 7.4, 37° C.) were introduced into the cell at time 0. Absorption studies were conducted for 90 minutes, after which time the cell contents were drawn out with a pipette, the cell removed and the tissues from beneath the position of the cell sequentially dissected into preweighed vials for weight determination, solubilisation and liquid scintillation counting."}, "[3]": {"conditions": "reductions in blood flow; cited from earlier work"}, "[4]": {"type": "in vivo, rat (male Wistar)", "procedure": "Male Wistar rats (348±20 g) were anaesthetised i.p. with sodium pentobarbitone (60 mg/kg) and laid abdomen down on a heating pad (37° C.) with the left hindleg extending over the edge of the pad. The left hind foot was cleaned with cotton wool swabs soaked in a dilute solution of ethanol then dried. The foot was then immersed, to a standard position marked on the ankle joint, in 2 ml of vehicle solution (30% propylene glycol/30% ethanol/40% water) containing ^3 H-water (Sigma, Australia) with (n=3) or without (n=3) 2% GTN (David Bull Laboratories Pty Ltd. Melbourne, Australia). Solutions were left in contact with the foot for 2 hours with 10 μl samples taken at time zero and at the end of the absorption period. After 2 hrs a blood sample was taken from the tail vein and animals were sacrificed by cervical dislocation whilst still anaesthetised. The rat paws were cleaned as previously to remove any excess radiolabelled solute from the surface. Skin from the upper part of the foot, the foot pad and foot muscles were dissected from each treated and contralateral paw, placed into preweighed scintillation vials, solubilised with NCS (Amersham, Australia) and counted for radioactivity, along with the 10 μl solution samples, following the addition of the appropriate scintillation cocktail. Statistical analysis was performed using a Student unpaired t-test, with significance taken at the P<0.05 level.", "remark": "listed apart in the source"}, "[5]": {"conditions": "for Change in salicylic acid clearance from solutions applied to the dermis: FIG. 1", "quoted_text": "In vivo dermal penetration and local tissue uptake studies: The rats were lightly anaesthetised by pentobarbitone (35mg/kg) and their body temperature maintained at 37° C. by placing them on a heating pad. The hair from the 4 cm^2 dorsum area were removed by electric clippers and the epidermis removed by means of an electrodermatome set at a thickness of 80 microns. A dermal absorption cell was adhered to the exposed rat dermis and warmed to 37° C. by means of an external heating device.\nSolution of solute spiked with corresponding labelled substance and containing an appropriate concentration of phenylephrine, previously warmed to 37° C., was introduced into the dermal absorption cell and the solution stirred by a glass stirrer driven by an external motor. Samples were removed from the donor cell at predetermined times and placed in preweighed scintillation vials. The glass cell was removed from the rat skin at the end of two hour dermal perfusion study and the application area wiped dry with blotting paper. A blood sample was then taken from the tail vein and the animals sacrificed with overdoes of anaesthetic ether. Immediately thereafter the tissues below the treated site i.e. skin, subcutaneous tissue, fascia, muscle lining or superficial muscle, muscle, fat pad and deep muscle were removed from dissection and placed in preweighed scintillation vials. Similarly, the tissues below the contralateral side were also removed. Tissue and plasma samples were stored at -20° C. prior to analysis. In vivo dermal penetration and local tissue uptake studies (sacrificed animals): The rats were initially anaesthetised by intraperitoneal injection of pentobarbitone (35 mg/kg) and after removing epidermis as described above, were sacrificed by overdose of ether. Dermal perfusion and tissue uptake studies were then conducted in postmortem rats.\nThe phenylephrine induced reduction in blood flow to dermis was determined by monitoring the dermal clearance of tritiated water in presence of phenylephrine.\nAqueous samples removed from the glass cells in in vivo dermal perfusion studies were directly mixed with 5 ml of liquid scintillation cocktail BCS and counted on liquid scintillation counter. The tissue samples were solubilised with 50 μl of water and 1 ml of tissue solubilizer NCS at 50° C. for 6-8 hrs."}, "[6]": {"conditions": "30° C.; Michaels et al.; cited from earlier work"}, "[7]": {"conditions": "nitroglycerine; cited from earlier work"}, "[8]": {"conditions": "topical ointment; cited from earlier work"}, "[9]": {"conditions": "postmortem conditions; cited from earlier work"}, "[10]": {"conditions": "2% GTN vs vehicle, 2 hours, FIG. 5"}}, "note": "Read-outs that look alike come from different tables or passages of the source.", "data": [{"smiles": "O", "note": "[Water]", "values": [{"measurement": "Concentration in plasma and contralateral tissues", "setting": "[1]; in the presence of phenylephrine", "result": "decreased"}, {"measurement": "Concentration in tissues below the application area", "setting": "[1]; in the presence of phenylephrine, FIGS. 3 & 4", "result": "increased"}, {"measurement": "Dependence of tissue concentrations on perfusion flow rate", "setting": "[2]; 4 vs 8 ml/min", "result": "great dependence on perfusion flow rate"}, {"measurement": "Tissue concentration of water in dermis (2 mm) and superficial muscle layer (5 mm)", "setting": "[2]; 8 ml/min vs 4 ml/min, p<0.05", "result": "statistically lower"}, {"measurement": "Tissue concentration of water in the deeper muscle layers", "setting": "[2]; lower flow rate (4 ml/min)", "result": "higher concentrations"}, {"measurement": "Increase in clearance from the dermal cell", "setting": "[2]; perfusion flow rate raised from 4 ml/min to 8 ml/min, p<0.05, 90 minutes, pH 7.4, 37° C.", "result": 31, "unit": "%"}, {"measurement": "Absorption from dermal and subcutaneous sites", "setting": "[3]", "result": "significant reductions in absorption"}, {"measurement": "Concentration of water in upper skin and muscle tissues of the contralateral limb", "setting": "[4]; 2% GTN vs vehicle", "result": "significant increase"}, {"measurement": "Concentration in the outer skin or foot pad of the rat paw", "setting": "[4]; [10]", "result": "no significant change"}, {"measurement": "Concentration of water in the deeper foot muscles", "setting": "[4]; [10]", "result": "highly significant increase"}, {"measurement": "Plasma concentration of water", "setting": "[4]; 2% GTN vs vehicle, 2 hours, P=0.046, FIG. 5", "result": "significant increase"}, {"measurement": "Underlying tissue concentration of topically coadministered 3H-water", "setting": "[4]; topical GTN, anaesthetised animals", "result": "significantly increase"}, {"measurement": "Dermal clearance (Mean ± S.D.)", "setting": "[5]; Control (no phenylephrine), anaesthetised rats, 37° C., two hour study", "result": "1.10 ± 0.24", "unit": "mL/h"}, {"measurement": "Dermal clearance (Mean ± S.D.)", "setting": "[5]; Phenylephrine (1:5000)", "result": "0.40 ± 0.02", "unit": "mL/h"}, {"measurement": "Dermal clearance (Mean ± S.D.)", "setting": "[5]; Phenylephrine (1:20000)", "result": "0.53 ± 0.05", "unit": "mL/h"}, {"measurement": "Dermal clearance (Mean ± S.D.)", "setting": "[5]; Sacrificed animals", "result": "0.36 ± 0.02", "unit": "mL/h"}]}, {"smiles": "CN[C@@H](C)[C@H](O)c1ccccc1", "note": "[ephedrine]", "values": [{"measurement": "Maximum flux through skin", "setting": "[6]", "result": "250-400 μg/cm^2 per hr"}]}, {"smiles": "O=[N+]([O-])OCC(CO[N+](=O)[O-])O[N+](=O)[O-]", "note": "[nitroglycerine]", "values": [{"measurement": "Water solubility", "setting": "[7]", "result": 1.3, "unit": "mg/mL"}]}, {"smiles": "CCCCC[C@H](O)/C=C/[C@@H]1[C@H]2C/C(=C/CCCC(=O)O)O[C@H]2C[C@H]1O", "note": "[Prostaglandin I2 (PGI2)]", "values": [{"measurement": "Effectiveness in the treatment of skin ulcers", "setting": "[8]", "result": "effective in the treatment of skin ulcers"}]}, {"smiles": "O=C(O)c1ccccc1O", "note": "[salicylic acid]", "values": [{"measurement": "Plasma levels and levels in contralateral tissues", "setting": "[1]; PE concentration of 0.1%, FIG. 2a-h", "result": "sudden increase"}, {"measurement": "Concentration in underlying tissues (fraction of initial concentration)", "setting": "[1]; PE concentrations above 0.01%, FIG. 2a-g", "result": "approach a constant value"}, {"measurement": "Concentration in underlying tissues (fraction of initial concentration)", "setting": "[1]; PE up to 0.01%, underlying tissues except for fat pad, FIG. 2a-g", "result": "increase with increase in concentration of PE up to 0.01%"}, {"measurement": "Systemic salicylic acid blood levels", "setting": "[1]; increasing phenylephrine concentration, FIG. 2h", "result": "gradual decline"}, {"measurement": "Concentration in contralateral tissues", "setting": "[1]; increasing phenylephrine concentrations, FIG. 2a-g", "result": "decreased with increasing phenylephrine concentrations"}, {"measurement": "Concentration in deep muscle", "setting": "[1]; phenylephrine 0.01%", "result": "maximum concentrations"}, {"measurement": "Concentration in deep muscle", "setting": "[1]; phenylephrine above 0.01%", "result": "decreases"}, {"measurement": "Change in salicylic acid clearance from solutions applied to the dermis", "setting": "[5]; increasing phenylephrine concentration up to 0.05%", "result": "decreased up to phenylephrine concentration of 0.05%"}, {"measurement": "Change in salicylic acid clearance from solutions applied to the dermis", "setting": "[5]; phenylephrine 0.1%", "result": "no further decrease"}]}, {"smiles": "CN(Cc1cnc2nc(N)nc(N)c2n1)c1ccc(C(=O)N[C@@H](CCC(=O)O)C(=O)O)cc1", "note": "[methotrexate]", "values": [{"measurement": "Disappearance from dermal and subcutaneous sites", "setting": "[9]", "result": "reduced"}]}]}
